The molecules below were run against T1, Nitric oxide synthase, inducible (Mus musculus, UniProt P29477) (assay: iNOS Activity Assay).
T1 sequence (P29477 whole entry): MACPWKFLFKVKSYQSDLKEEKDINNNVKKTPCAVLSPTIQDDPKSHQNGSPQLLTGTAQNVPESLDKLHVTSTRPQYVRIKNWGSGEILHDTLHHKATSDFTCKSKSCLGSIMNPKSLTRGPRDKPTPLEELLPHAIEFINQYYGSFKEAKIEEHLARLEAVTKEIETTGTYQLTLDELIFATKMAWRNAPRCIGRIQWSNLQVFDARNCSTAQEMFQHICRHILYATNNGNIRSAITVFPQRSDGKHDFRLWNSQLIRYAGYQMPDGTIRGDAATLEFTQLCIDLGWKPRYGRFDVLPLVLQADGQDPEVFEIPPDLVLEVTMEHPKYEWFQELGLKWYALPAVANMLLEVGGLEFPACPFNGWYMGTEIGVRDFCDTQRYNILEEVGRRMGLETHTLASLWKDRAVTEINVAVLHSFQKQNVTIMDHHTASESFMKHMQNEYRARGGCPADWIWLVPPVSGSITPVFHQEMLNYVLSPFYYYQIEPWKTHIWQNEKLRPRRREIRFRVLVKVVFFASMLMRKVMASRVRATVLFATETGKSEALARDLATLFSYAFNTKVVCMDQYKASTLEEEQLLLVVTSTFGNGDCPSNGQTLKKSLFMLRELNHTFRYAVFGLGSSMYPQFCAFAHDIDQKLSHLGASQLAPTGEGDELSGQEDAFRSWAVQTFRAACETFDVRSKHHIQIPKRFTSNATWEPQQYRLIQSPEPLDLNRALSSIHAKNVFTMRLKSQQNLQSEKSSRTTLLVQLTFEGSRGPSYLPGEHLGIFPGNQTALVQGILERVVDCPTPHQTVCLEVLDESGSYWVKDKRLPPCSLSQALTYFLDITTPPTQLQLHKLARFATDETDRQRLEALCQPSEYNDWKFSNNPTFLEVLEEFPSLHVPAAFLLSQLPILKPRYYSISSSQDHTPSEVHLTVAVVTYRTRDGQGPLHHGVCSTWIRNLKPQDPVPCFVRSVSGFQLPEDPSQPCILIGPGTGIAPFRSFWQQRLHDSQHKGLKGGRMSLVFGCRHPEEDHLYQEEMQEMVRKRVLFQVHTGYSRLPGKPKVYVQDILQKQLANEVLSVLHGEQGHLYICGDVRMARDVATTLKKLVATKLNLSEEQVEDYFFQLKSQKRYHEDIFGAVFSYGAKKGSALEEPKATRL
Procedure: The iNOS activity assay was based on the method of hemoglobin assay previously described with slight modifications. The activity of the enzyme was determined spectrophotometrically by monitoring the NO-mediated conversion of oxyhemoglobin to methemoglobin at 401 and 421 nm.

Compound | Ki [µM]
N=C(NCCCC12C[NH][Re]([CH]=O)([CH]=O)([CH]=O)([NH]1)[O]C2=O)N[N+](=O)[O-] (stereo not given) [1,1,1-triformyl-4-(3-{[iminiumyl(nitroamino)methyl]amino}propyl)-3-oxo-2-oxa-6,7-diaza-1-rhenabicyclo[2.2.1]heptane-6,7-diium (Re4)] | 241
N=C(NCCCC(N)(CN)C(=O)O)N[N+](=O)[O-] (stereo not given) [2-Amino-2-(aminomethyl)-5-(3-nitroguanidino)pentanoic acid (L4)] | 29.4
NCC(N)(CCCC(=O)NC(CCCNC(N)=N[N+](=O)[O-])C(=O)O)C(=O)O (stereo not given) [2-Amino-2-(aminomethyl)-6-(1-carboxy-4-(2-nitroguanidino)butylamino)-6-oxohexanoic acid (L5)] | 6.2
NCC(N)(CCCCCCC(=O)NC(CCCNC(N)=N[N+](=O)[O-])C(=O)O)C(=O)O (stereo not given) [2-Amino-2-(aminomethyl)-9-(1-carboxy-4-(2-nitroguanidino)butylamino)-9-oxononanoic acid (L6)] | 760
N=C(NCCCC(NC(=O)CCCC12C[NH][Re]([CH]=O)([CH]=O)([CH]=O)([NH]1)[O]C2=O)C(=O)O)N[N+](=O)[O-] (stereo not given) [4-{3-[(1-carboxylato-4-{[iminiumyl(nitroamino)methyl]amino}butyl)carbamoyl]propyl}-1,1,1-triformyl-3-oxo-2-oxa-6,7-diaza-1-rhenabicyclo[2.2.1]heptane-6,7-diium (Re5)] | 57.2
